Laboratory results as given in patent publication US12396985B2, “Composition for oral administration with controlled release properties comprising complex of clay minerals, method for preparing same, and method for controlling release properties” (Korea Institute of Geoscience and Mineral Resources, priority 2019, dated 2025).
≈ marks a conversion by molar mass, not a printed value.

Assays:
[1] = adsorption rate of vactosertib onto bentonite; assay type: physicochemical
Procedure: The adsorption rates of vactosertib and bentonite according to the pH of a solvent were evaluated. At this time, considering that the vactosertib was not dissolved in neutral, but stated to be dissolved in about 1 mg/mL from pH 3, a test was performed by setting a reaction pH to pH 1, pH 2, and pH 3. First, 10 mg/mL of the vactosertib was dissolved in a 0.1 N hydrochloric acid aqueous solution and diluted with a hydrochloric acid aqueous solution or a phosphate buffer solution (pH 1: 0.1 N hydrochloric acid aqueous solution, pH 2, pH 3: phosphate buffer solution) corresponding to each pH to adjust the concentration to 1 mg/mL. 1 mL of a corresponding drug solution, 8 mL of a reaction solution (that is, 0.1 N hydrochloric acid aqueous solution or phosphate buffer solution) corresponding to each pH, and 1 mL of a 5 mg/mL suspension in which bentonite was suspended in distilled water were mixed and left for 30 minutes to adsorb the drug onto the bentonite. Thereafter, a drug concentration of a supernatant obtained by centrifugation (3,000 rpm, 5 minutes) was analyzed. Through this, the drug amount adsorbed onto the bentonite was indirectly calculated as shown in Equation 1 by removing the remaining drug amount in the supernatant from the entirely applied drug (vactosertib) to calculate an adsorption rate. [formula] [formula] To this end, a sample was prepared in the same manner as in Test Example 1, and a complex was prepared by fixing a reaction concentration and a reaction pH of bentonite to 0.5 mg/mL and pH 1, respectively, and varying the concentration of the applied vactosertib from 0.01 mg/mL to 0.5 mg/mL. In addition, a difference in adsorption rate according to the concentration of vactosertib was measured. To this end, a sample was prepared in the same manner as in Test Example 1, and a complex was prepared by using a solvent of pH 1, setting a concentration ratio of vactosertib and bentonite to 1:5, and varying an absolute concentration (that is, actual concentration). In addition, a difference in adsorption rate according to an absolute concentration was measured.

[2] = aqueous solubility of the compound of Chemical Formula 1; assay type: physicochemical
[3] = tested on: ulcerative colitis mouse model induced with DSS; test: histopathological severity scores in ulcerative colitis mouse model induced with DSS; assay type: in vivo, C57BL/6 mice
Procedure: Animal tests were performed to confirm anti-inflammatory, anti-crypt cell damage, anti-ulcer, anti-edema, and anti-fibrosis effects of a vactosertib/bentonite complex using a mouse model of ulcerative colitis as one of inflammatory bowel diseases. C57BL/6 mice were selected as test animals, and in order to induce ulcerative colitis, a cycle in which an inflammation inducing substance, DSS was added in drinking water and supplied for 7 days, and then normal drinking water was supplied for 14 days was repeated. Such an inflammation inducing cycle was repeated 3 times to induce chronic inflammation, ulcer and fibrous conditions in the large intestine. To test animal groups except for control groups, from 3 weeks after a first inflammation inducing cycle was elapsed, bentonite, vactosertib, or a vactosertib/bentonite complex was administered twice a day (10 am, 4 pm), 5 days a week, and for total 6 weeks. The bentonite per 1 kg of converted mouse weight was administered with 106.8 mg, the vactosertib was administered with 20.0 mg, and the complex was administered with 126.8 mg. At this time, as the vactosertib/bentonite complex, the complex prepared in Test Example 5 was used. For each test group used in ulcerative colitis animal tests, inflammation inducing substances, test substances, doses of the test substances, and the number of test animals were shown in Table 7 below.
C57BL/6 mice used in the test were supplied from the Orient Bio Gapyeong Center (699-13, Mokdong-ri, Buk-yeon, Gapyeong-gun, Gyeonggi-do), and about 6-week-old during obtaining. For about 7 days after obtaining, the rats were quarantined and purified and then healthy animals were used for the test. When the induced material was administered, the test animals were about 8-week-old, and 52 mice were used. The test animals were bred in the 2nd floor of Clean Animal Room, Bioscience Research Institute, Research Institute of Medical Science at Inha University, and circulated in at least 10 times/hour and bred under conditions of a temperature of 22±4° C., relative humidity of 50±20%, and illuminance of 150 to 300 Lux of lighting on for 12 hours (lighting: 08:00 to 20:00). A radiation solid feed (FeedLab GMO Free Rodent Diet GF2005) for rodents was free-taken using a feeder and water sterilized by an ultraviolet-ray flowing water sterilizer and high-pressure vapor after reverse osmosis was free-taken using a polysulfonate-made drinking water bottle (300 ml).
In order to induce ulcerative colitis, 2% DSS was added in drinking water of mice and continuously supplied for first 7 days of every test cycle (3 weeks). The test substances were orally administered 2 times a day, 5 days a week, and for a total of 6 weeks at the same time of second DSS induction (FIG. 14). The test substance dose was administered in a liquid amount of 20 mL per kg by body weight converted for each individual based on the body weight. The administration was orally performed by putting a test substance in a syringe and injecting the test substance by connecting a feeding needle for rats.
In order to evaluate a treatment effect of test substances on ulcerative colitis, after the end of the test, the animal was anesthetized, opened, and bled and then a histopathological test was performed for each individual. Histopathological findings were subdivided and scored into severity changes of inflammation, crypt cell damage, ulcer, edema, and fibrosis as shown in Table 8 below. In addition, the four histopathological severity scores excluding fibrosis were summed to compare a positive control (G2) and test substance-administered groups (G3, G4, and […]).
Statistical analysis was performed using Graphpad Prism version 8.01, and a minimum unit of significance was set to p<0.05. Since all measured histopathological indexes were nonparametric data, the indexes were represented by a median, 25% to 75% values (in the box), and minimum-maximum values (both ends) in the graph (FIGS. 15 to 20). […]

interleukin 6 (IL-6) = test: immunohistochemical IL-6 staining of large intestine, DSS ulcerative colitis mouse model; assay type: in vivo, C57BL/6 mice; settings: DSS 2% mice, same dosing
Procedure: Animal tests were performed to confirm anti-inflammatory, anti-crypt cell damage, anti-ulcer, anti-edema, and anti-fibrosis effects of a vactosertib/bentonite complex using a mouse model of ulcerative colitis as one of inflammatory bowel diseases. C57BL/6 mice were selected as test animals, and in order to induce ulcerative colitis, a cycle in which an inflammation inducing substance, DSS was added in drinking water and supplied for 7 days, and then normal drinking water was supplied for 14 days was repeated. Such an inflammation inducing cycle was repeated 3 times to induce chronic inflammation, ulcer and fibrous conditions in the large intestine. […]
In order to observe an immunohistochemical change of a large intestine tissue, a tissue fixed to a 10% neutral buffer formalin solution was sliced, attached to a coating slide, and deparaffinized, and then stained, and IHC of reacting with antibodies IL-6 (Interleukin-6), α-SMA (α-smooth muscle actin), and TGF-β (transforming growth factor beta) on each slide was requested to an external institute (Notus) and the test was performed. In an individual-specific tissue slide, three constant zones were specified and imaged 100 times, a stained portion to the total area was measured, and a mean value was calculated (Zen 2.3 blue edition, Carl Zeiss, Germany). […]

[4] = partition coefficient (octanol/water); assay type: physicochemical
[5] = DSS 2% mice, oral twice a day, 5 days a week, 6 weeks, bentonite 106.8, vactosertib 20.0, complex 126.8 mg/kg, 3 point scale

Cc1cccc(-c2[nH]c(CNc3ccccc3F)nc2-c2ccc3ncnn3c2)n1 [Vactosertib, N-((4-([1,2,4]triazolo[1,5-a]pyridine-6-yl)-5-(6-methylpyridin-2-yl)-1H-imidazol-2-yl)methyl)-2-fluoroaniline]
Adsorption rate ([1]; vactosertib 0.01 mg/mL, bentonite 0.5 mg/mL, pH 1): 99.4 ± 0.1%
Adsorption rate ([1]; vactosertib 0.025 mg/mL, bentonite 0.5 mg/mL, pH 1): 99.8 ± 0.0%
Adsorption rate ([1]; vactosertib 0.05 mg/mL, bentonite 0.5 mg/mL, pH 1): 99.8 ± 0.1%
Adsorption rate ([1]; vactosertib 0.1 mg/mL, bentonite 0.5 mg/mL, pH 1): 80.7 ± 1.0%
Adsorption rate ([1]; vactosertib 0.1 mg/mL, bentonite 0.5 mg/mL, pH 2): 79.3 ± 1.0%
Adsorption rate ([1]; vactosertib 0.1 mg/mL, bentonite 0.5 mg/mL, pH 3): 79.0 ± 0.8%
Adsorption rate ([1]; vactosertib 0.15 mg/mL, bentonite 0.5 mg/mL, pH 1): 57.1 ± 1.5%
Adsorption rate ([1]; vactosertib 0.2 mg/mL, bentonite 0.5 mg/mL, pH 1): 43.8 ± 0.5%
Adsorption rate ([1]; vactosertib 0.3 mg/mL, bentonite 0.5 mg/mL, pH 1): 31.2 ± 1.2%
Adsorption rate ([1]; vactosertib 0.4 mg/mL, bentonite 0.5 mg/mL, pH 1): 23.0 ± 0.8%
Adsorption rate ([1]; vactosertib 0.5 mg/mL, bentonite 0.5 mg/mL, pH 1): 19.0 ± 0.9%
Adsorption rate ([1]; vactosertib 1 mg/mL, bentonite 5 mg/mL, pH 1): 90.4 ± 0.2%
solubility ([2]; 25 °C, water, thermodynamic from solid, saturated aqueous solution at 25±3° C., pH 7.2): < 20 µg/mL
pH of a saturated aqueous solution ([2]; 25±3° C.): 7.2
solubility ([2]; aqueous solution, aqueous buffer, at pH 2.81): 25000 µg/mL (≈ 62700 µM)
solubility ([2]; aqueous solution, aqueous buffer, at pH 3): ~1000 µg/mL (≈ 2500 µM)
solubility ([2]; aqueous solution, aqueous buffer, in pH 4.9 or higher): ≤ 20 µg/mL
Edema score (mean) ([3]; DSS 2% mice, oral twice a day, 5 days a week, 6 weeks, bentonite 106.8, vactosertib 20.0, complex 126.8 mg/kg, 1 point scale): 0.3
Fibrosis score (mean) [3, 5]: 1.5
Ulcer score (mean) [3, 5]: 0.9
Crypt cell damage score (mean) ([3]; DSS 2% mice, oral twice a day, 5 days a week, 6 weeks, bentonite 106.8, vactosertib 20.0, complex 126.8 mg/kg, 4 point scale): 2
Inflammation score (mean) ([3]; DSS 2% mice, oral twice a day, 5 days a week, 6 weeks, bentonite 106.8, vactosertib 20.0, complex 126.8 mg/kg, 5 point scale): 3.6
median of inflammation index compared with the positive control group (G2) ([3]; FIG. 15, Dunn's test): slightly low in a median of an inflammation index
median of crypt cell damage index compared with the positive control group (G2) ([3]; FIG. 16, Dunn's test): low in a median of a crypt cell damage index, but had no statistical significance
median of ulcer index compared with the positive control group (G2) ([3]; FIG. 17, Dunn's test): low in a median of an ulcer index, but had no statistical significance
median of fibrosis index compared with the positive control group (G2) ([3]; FIG. 19, Dunn's test): slightly low in a median of a fibrosis index
median of summed severity scores (inflammation, crypt cell damage, ulcer, edema) compared with the positive control group (G2) ([3]; FIG. 20, Dunn's test): low in a median of an ulcer index, but had no statistical significance
Histopathologic total score (mean) ([3]; sum of inflammation, crypt cell damage, ulcer, edema (fibrosis excluded), same dosing): 6.8
reduction of IL-6 staining area compared with G2 group (interleukin 6 (IL-6)): 23.0%
IL-6 (Area %) (interleukin 6 (IL-6); mean and standard error): 9.7 ± 2.9 Area %
partition coefficient (octanol/water) Log Do/w [4]: 3.31
